Where two headings read alike, the source gives them in different places.
Assays:
[1] = Brain-to-blood drug concentration ratio of mice; assay type: in vivo; details: mouse, 5 mg/kg PO, 2 h; for Kp at 2 h: brain/plasma
Description: On the day of administration, mice were weighed for actual body weight and the administration volume was calculated. In each group of 9 mice, the compound was administered by single intravenous (IV) injection or intragastric (PO) administration. Whole blood samples were collected via the orbit at prescribed time points. After blood sample collection, the samples were immediately transferred to labeled commercial sample tubes containing K2-EDTA (0.85-1.15 mg), followed by centrifugation (3200×g, 4° C., 10 min) and plasma collection. The plasma was transferred to a pre-cooled centrifuge tube, frozen in dry ice, and stored in an ultra-low temperature freezer at −60° C. or lower until the LC-MS/MS analysis. 20 μL of a plasma sample or brain tissue homogenate was taken and 80 μL of an internal standard solution (50 ng/mL solution of propafenone in acetonitrile) was added. The plate was sealed with a film sealer at 165° C., shaken on a micro oscillator (maximum vibration speed) for 10 min, and centrifuged at 4000 rpm for 20 min using a low-speed benchtop centrifuge, 10 μL of supernatant was transferred and 90 μL of acetonitrile was added. The mixture was vortexed and mixed well, and then the plate was sealed with the film sealer at 165° C. After the mixture was vortexed and mixed well, 1 μL of supernatant was taken for LC-MS/MS analysis. Plasma drug concentration data for the compounds were processed in a non-compartmental model using WinNonlin Version 6.3 (Pharsight, Mountain View, CA) pharmacokinetic software. The relevant pharmacokinetic parameters were calculated by a linear logarithmic trapezoid method.
Data processing: brain-to-blood drug concentration ratio of mice at the same time point=drug concentration in brain tissue/drug concentration in plasma

[2] = target: HDAC6 (Homo sapiens (Human), UniProt Q9UBN7); assay: HDAC6 enzymatic activity assay; assay type: biochemical
Chain of HDAC6 (Q9UBN7 whole entry): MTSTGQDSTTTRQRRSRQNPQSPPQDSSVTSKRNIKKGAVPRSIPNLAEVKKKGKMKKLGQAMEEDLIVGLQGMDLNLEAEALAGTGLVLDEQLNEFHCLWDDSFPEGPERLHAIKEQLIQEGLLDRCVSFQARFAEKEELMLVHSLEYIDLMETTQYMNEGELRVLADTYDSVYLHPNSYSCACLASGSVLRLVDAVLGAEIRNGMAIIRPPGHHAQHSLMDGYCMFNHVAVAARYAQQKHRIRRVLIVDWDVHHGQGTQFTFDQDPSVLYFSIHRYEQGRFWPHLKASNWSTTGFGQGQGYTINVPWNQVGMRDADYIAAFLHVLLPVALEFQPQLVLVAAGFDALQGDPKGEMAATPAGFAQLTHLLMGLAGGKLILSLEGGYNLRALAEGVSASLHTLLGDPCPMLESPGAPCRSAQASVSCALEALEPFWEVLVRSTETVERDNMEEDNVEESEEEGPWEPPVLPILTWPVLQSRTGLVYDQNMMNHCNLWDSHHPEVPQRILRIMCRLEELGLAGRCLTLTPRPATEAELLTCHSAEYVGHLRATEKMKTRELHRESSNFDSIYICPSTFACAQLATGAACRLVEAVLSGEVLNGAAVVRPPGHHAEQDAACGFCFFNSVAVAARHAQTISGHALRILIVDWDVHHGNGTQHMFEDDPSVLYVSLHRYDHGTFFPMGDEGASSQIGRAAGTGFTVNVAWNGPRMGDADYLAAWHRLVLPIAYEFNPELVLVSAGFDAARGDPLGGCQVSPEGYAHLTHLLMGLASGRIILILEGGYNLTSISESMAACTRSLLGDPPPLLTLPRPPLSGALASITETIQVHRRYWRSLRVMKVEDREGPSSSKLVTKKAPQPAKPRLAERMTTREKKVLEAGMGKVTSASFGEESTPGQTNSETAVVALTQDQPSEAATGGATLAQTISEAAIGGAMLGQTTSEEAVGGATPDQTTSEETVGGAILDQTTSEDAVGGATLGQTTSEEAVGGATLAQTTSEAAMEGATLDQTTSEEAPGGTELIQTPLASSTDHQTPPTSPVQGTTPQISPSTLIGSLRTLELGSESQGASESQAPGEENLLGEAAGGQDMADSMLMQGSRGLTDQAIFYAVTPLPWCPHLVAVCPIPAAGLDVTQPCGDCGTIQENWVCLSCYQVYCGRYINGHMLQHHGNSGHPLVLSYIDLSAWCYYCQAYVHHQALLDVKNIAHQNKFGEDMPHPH
Description: The inhibitory activity of the compounds of the present application against HDAC6 was evaluated by an enzymatic activity assay. HDAC6 (Abcam), test compounds, and a 20 µM substrate solution (Ac-GAK(Ac)-AMC) were each added to a 384-well plate, and the plate was incubated at 37° C. for 30 min. […] and […] were added, and the plate was incubated at room temperature for 15 min. […] IC50 was obtained by fitting using GraphPadPrism 7.0 software.

[3] = Phase I metabolic stability in rat liver microsomes (RLMs); assay type: in vitro ADME, Sprague-Dawley rats; details: RLM
Description: (§1) Phase I metabolic stability of the test compounds in liver microsomes of CD-1 mice (MLMs), Sprague-Dawley rats (RLMs), beagle dogs (DLMs), cynomolgus monkeys (CLMs), and humans (HLMs) was evaluated.
(§2) The animal and human liver microsomes used in the test system were purchased from Xenotech, Corning, or other qualified suppliers and stored in a freezer at a temperature below −60° C. prior to use.
(§3) The test samples and control compounds were separately incubated with animal and human liver microsomes at 37±1° C. for a period of incubation time up to 60 min. The samples were removed at the indicated time points, and the reaction was stopped with acetonitrile or other organic solvents containing an internal standard. After centrifugation, the resulting supernatants were assayed by liquid chromatography-tandem mass spectrometry (LC-MS/MS).
(§4) 73.21 g of dipotassium hydrogenphosphate trihydrate and 10.78 g of potassium dihydrogenphosphate were dissolved in 4000 mL of ultrapure water. The solution was adjusted to pH 7.40±0.10 with 10% phosphoric acid or 1 M potassium hydroxide to make a final concentration of 100 mM.
(§5) The test sample powder was prepared into a stock solution at a certain concentration with DMSO or other organic solvents, which was then further diluted with a proper organic solvent.
(§6) Microsomes of each species were diluted into a 2× working solution with a 100 mM potassium phosphate buffer. The final concentration of the microsomes in the reaction system was 0.5 mg/mL.
(§7) An appropriate amount of nicotinamide adenine dinucleotide phosphate (NADP) and isocitric acid (ISO) powder was weighed out, dissolved in a magnesium chloride solution, and shaken and mixed well. An appropriate amount of isocitrate dehydrogenase (IDH) was added, and the mixture was mixed well by gently turning upside down. The final concentrations in the reaction system were: 1 mM NADP, 1 mM magnesium chloride, 6 mM ISO, and 1 unit/mL IDH.
(§8) Incubation was performed in a 96-well plate. Eight incubation plates were prepared and designated T0, T5, T15, T30, T45, T60, Blank60, and NCF60, respectively. The first 6 plates corresponded to reaction time points of 0, 5, 15, 30, 45, and 60 min, respectively. No test sample or control compound was added to the Blank60 plate, and samples were taken after 60 min of incubation. In the NCF60 plate, incubation was performed for 60 min using the potassium phosphate buffer instead of the NADPH regeneration system solution. Three replicates were made for samples in all conditions.
(§9) The microsomes and the test sample or control compound were mixed, and then the incubation plates Blank60, T5, T15, T30, T45, and T60 except for TO and NCF60 were placed in a 37° C. water bath for pre-incubation for about 10 min. In the incubation plate TO, a stop solution was first added, followed by addition of the NADPH regeneration system working solution, and 98 μL of the potassium phosphate buffer was added to each sample well of the incubation plate NCF60 to initiate the reaction. After the pre-incubations of the incubation plates Blank60, T5, T15, T30, T45, and T60 were completed, 98 μL of the NADPH regeneration system working solution was added to each sample well to initiate the reaction. The reaction temperature was 37±1° C., the final volume of the reaction was 200 μL, and the reaction system included 0.5 mg/mL microsomes, […], 1 mM NADP, 6 mM ISO, and 1 unit/mL IDH.
(§10) At 5 min, 15 min, 30 min, 45 min, and 60 min, a cold stop solution containing an internal standard was added to the reaction plate to stop the reaction.
(§11) All the reaction plates after the reaction was stopped were shaken well and centrifuged at 3220×g at 4° C. for 20 min. After the supernatant was diluted according to a certain proportion, LC-MS/MS analysis was performed.
(§12) Sample analysis was performed by the liquid chromatography-tandem mass spectrometry (LC-MS/MS) method without standard curves and quality control samples. […]

[4] = Phase I metabolic stability in mouse liver microsomes (MLMs); assay type: in vitro ADME, CD-1 mice; details: MLM
Description: as §1, §2, §3, §4, §5, §6, §7, §8, §9, §10, §11, §12

[5] = Phase I metabolic stability in human liver microsomes (HLMs); assay type: in vitro ADME, humans; details: HLM
Description: as §1, §2, §3, §4, §5, §6, §7, §8, §9, §10, §11, §12

[6] = Pharmacokinetic test in mice (IV and PO); assay type: in vivo, BALB/c mice; details: for Cmax / AUC(0-inf) / AUC(0-t) / MRT inf / Vd / Tmax: BALB/c, mouse, plasma; for MRT inf: read-out: MRT(0-∞); for Vd: read-out: Vz
Description: In this example, the pharmacokinetic behavior of the compounds after intravenous injection (IV) and intragastric (PO) administration in BALB/c mice was tested.
On the day of administration, mice were weighed for actual body weight and the administration volume was calculated. Each compound was tested in two groups with 3 mice in each group, one group administered by single intravenous injection and the other group of mice by single intragastric administration. Whole blood samples were collected via the orbit at prescribed time points (0.25 h, 0.5 h, 1 h, 2 h, 4 h, 8 h, and 24 h after administration). After blood sample collection, the samples were immediately transferred to labeled commercial sample tubes containing K2-EDTA (0.85-1.15 mg), followed by centrifugation (3200×g, 4° C., 10 min) and plasma collection. The plasma was transferred to a pre-cooled centrifuge tube, frozen in dry ice, and stored in an ultra-low temperature freezer at −60° C. or lower until the LC-MS/MS analysis.
Plasma concentrations were determined by a LC-MS/MS method. Plasma drug concentration data for compounds 1 and 2 were processed in a non-compartmental model using WinNonlin Version 6.3 (Pharsight, Mountain View, CA) pharmacokinetic software. The relevant pharmacokinetic parameters were calculated by a linear logarithmic trapezoid method.

[7] = brain, read-out: Brain drug concentration
[8] = plasma, read-out: Blood drug concentration
[9] = buffer instead of NADPH regeneration system, 60 min
[10] = Sprague-Dawley, rat, liver microsomes, pH 7.4
[11] = CD-1, mouse, liver microsomes, pH 7.4
[12] = human, liver microsomes, pH 7.4

## O=S(=O)(N[C@@H]1CCCC[C@H]1N1Cc2ccc(-c3nnc(C(F)F)o3)cc2S1(=O)=O)C1CC1 [Compound 4]
[1]; [7]
  concentration at 2 h: 190 ng/mL
[1]
  Kp at 2 h: 0.08
[1]; [8]
  concentration at 2 h: 2260 ng/mL
[2]
  IC50: 154 nM

## O=S1(=O)c2cc(-c3nnc(C(F)F)o3)ccc2CN1C(c1ccccn1)[C@H](O)c1ccccn1 (stereo partly drawn) [Compound 83]
[3]; [9]
  Remaining rate (NCF = 60 min): 88.49%
[3]; with NADPH, 60 min
  Remaining rate (T = 60 min): 36.99%
[3]; [10]
  CLint scaled at 1 µM: 58.6 mL/min/kg
  half-life at 1 M: 0.706 h
[4]; [11]
  CLint scaled at 1 µM: 41.4 mL/min/kg
  half-life at 1 M: 2.2 h
[4]; [9]
  Remaining rate (NCF = 60 min): 84.39%
[4]; with NADPH, 60 min
  Remaining rate (T = 60 min): 72.27%
[5]; [9]
  Remaining rate (NCF = 60 min): 84.68%
[5]; with NADPH, 60 min
  Remaining rate (T = 60 min): 82.70%
[5]; [12]
  CLint scaled at 1 µM: 6.43 mL/min/kg
  half-life at 1 M: 4.51 h
[6]; po, 10 mg/kg, read-out: C0/Cmax
  Cmax: 12 µM
[6]; mice, IV 2 mg/kg
  AUC(0-inf): 8.78 µM·h
  AUC(0-t): 8.61 µM·h
  MRT inf: 2.06 h
  Vd: 1.01 L/kg
  CLz: 7.82 mL/min/kg
  t½z: 1.493 h
[6]; mice, IV 2 mg/kg (C0)
  Cmax: 5.27 µM
[6]; mice, PO 10 mg/kg
  AUC(0-inf): 63.7 µM·h
  AUC(0-t): 50.5 µM·h
  Tmax: 0.5 h
  MRT inf: 4.57 h
  F: 117.4%
  t½z: 3.323 h

## CN(C)C(=O)N[C@@H]1CCCC[C@H]1N1Cc2ccc(-c3nnc(C(F)F)o3)cc2S1(=O)=O [Compound 93]
[1]; [7]
  concentration at 2 h: 27 ng/mL
[1]
  Kp at 2 h: 0.11
[1]; [8]
  concentration at 2 h: 252 ng/mL
[2]
  IC50: 133 nM
[6]; po, 5 mg/kg, read-out: C0/Cmax
  Cmax: 3.41 µM
[6]; mice, IV 1 mg/kg
  AUC(0-inf): 1.08 µM·h
  AUC(0-t): 1.07 µM·h
  MRT inf: 0.6 h
  Vd: 1.9 L/kg
  CLz: 33.3 mL/min/kg
  t½z: 0.7 h
[6]; mice, IV 1 mg/kg (C0)
  Cmax: 2.11 µM
[6]; mice, PO 5 mg/kg
  AUC(0-inf): 4.57 µM·h
  AUC(0-t): 4.56 µM·h
  Tmax: 0.5 h
  MRT inf: 1.2 h
  F: 84.4%
  t½z: 0.7 h

## O=S1(=O)c2cc(-c3nnc(C(F)F)o3)ccc2CN1[C@@H](c1ncccn1)[C@H](O)c1ncccn1 [Compound 103j-A]
[2]
  IC50: 285 nM

## O=S1(=O)c2cc(-c3nnc(C(F)F)o3)ccc2CN1[C@H](c1ncccn1)[C@@H](O)c1ncccn1 [Compound 103j-B]
[2]
  IC50: 108 nM

## O=S1(=O)c2cc(-c3nnc(C(F)F)o3)ccc2CN1[C@@H](c1ncccn1)[C@@H](O)c1ncccn1 [Compound 103j-C]
[2]
  IC50: 226 nM

## O=S1(=O)c2cc(-c3nnc(C(F)F)o3)ccc2CN1[C@H](c1ncccn1)[C@H](O)c1ncccn1 [Compound 103j-D]
[2]
  IC50: 231 nM

## O=C(NC1CC1)N[C@@H]1CCCC[C@H]1N1Cc2ccc(-c3nnc(C(F)F)o3)cc2S1(=O)=O [Compound 109]
[2]
  IC50: 89.8 nM

## O=C(NCC1CC1)N[C@@H]1CCCC[C@H]1N1Cc2ccc(-c3nnc(C(F)F)o3)cc2S1(=O)=O [Compound 110]
[2]
  IC50: 325 nM

## O=C(N[C@@H]1CCCC[C@H]1N1Cc2ccc(-c3nnc(C(F)F)o3)cc2S1(=O)=O)N1CCCC1 [Compound 112]
[2]
  IC50: 141 nM

## O=S1(=O)c2cc(-c3nnc(C(F)F)o3)ccc2CN1[C@@H]1CCCC[C@H]1NS(=O)(=O)C(F)(F)F [Compound 116]
[2]
  IC50: 173 nM

## O=S1(=O)c2cc(-c3nnc(C(F)F)o3)ccc2CN1c1ccccc1-c1ccccn1 [Compound 117]
[2]
  IC50: 449 nM

Reference: patent US20250257060A1, “OXADIAZOLE COMPOUND, PHARMACEUTICAL COMPOSITION COMPRISING SAME, AND USE THEREOF” (SUZHOU GENHOUSE BIO CO., LTD., priority 2022, published 2025)
